Experimental findings from PubChem BioAssay (NCI) are described below.

Some test systems named below: A498 renal; HS 578T breast; K-562 leukemia; LOX IMVI melanoma; MDA-MB-231 breast; MOLT-4 leukemia; NCI-H23 lung; SN12C renal; U251 CNS; UACC-257 melanoma.
Holding throughout (experiment): inhibition of tumour cell growth, NCI panel, 48 h

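All cell lines were grown in 96-well plates and treated with compound for 48 hours. Here, GI50 denotes the concentration required for 50% inhibition of growth. TGI marks complete inhibition of growth.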

On to `CCOC(=O)Oc1c(OC)cc(C(=O)O[C@@H]2C[C@@H]3CN4CCc5c([nH]c6cc(OC)ccc56)[C@H]4C[C@@H]3[C@H](C(=O)OC)[C@H]2OC)cc1OC`, for which the GI50 was 7.38 µM in the experiment on A498 renal; 7.09 µM with HS 578T breast; 3.5 µM in the experiment on K-562 leukemia; 2.91 µM with LOX IMVI melanoma; 2.56 µM in the experiment with MDA-MB-231 breast; 4.04 µM in the experiment on MOLT-4 leukemia. The GI50 was 5.24 µM in the experiment on NCI-H23 lung, 4.34 µM in the experiment on SN12C renal, 4.24 µM in the experiment with U251 CNS and 12.4 µM in the experiment on UACC-257 melanoma. Also, the TGI was above 100 µM in the experiment on A498 renal; 55.9 µM in the experiment with HS 578T breast; 35.7 µM in the experiment on K-562 leukemia; 14.7 µM in the experiment on LOX IMVI melanoma; 19.6 µM in the experiment on MDA-MB-231 breast; 23.3 µM in the experiment on MOLT-4 leukemia. The TGI in the experiment on NCI-H23 lung is 21.8 µM; with SN12C renal, 17.7 µM; with U251 CNS, 15.1 µM; in the experiment with UACC-257 melanoma, 30.4 µM.

Turning to `Cc1nc2cccc(NCc3ccc(C(=O)NO)cc3)c2c(=O)n1-c1ccccc1`, the GI50 was 1.7 µM in the experiment on A498 renal; 3.04 µM in the experiment on HS 578T breast; 2.52 µM in the experiment with K-562 leukemia; 1.82 µM in the experiment on LOX IMVI melanoma; 2.5 µM with MDA-MB-231 breast; 2.28 µM in the experiment on MOLT-4 leukemia. In addition, the GI50 with NCI-H23 lung was 1.63 µM; with SN12C renal, 2.14 µM; with U251 CNS, 1.56 µM; in the experiment with UACC-257 melanoma, 2.11 µM. Also, the TGI with A498 renal was 3.28 µM; in the experiment on HS 578T breast, above 100 µM; with K-562 leukemia it was above 100 µM; in the experiment on LOX IMVI melanoma, 3.35 µM; in the experiment on MDA-MB-231 breast it was 6.79 µM; in the experiment on MOLT-4 leukemia, above 100 µM. Besides, the TGI came to 3.18 µM in the experiment with NCI-H23 lung, 5.38 µM in the experiment with SN12C renal, 3.04 µM in the experiment on U251 CNS and 4.98 µM in the experiment on UACC-257 melanoma.

Take `C=C1C(=O)O[C@H]2[C@H]1CC/C(Cn1cc(-c3ccccc3)nn1)=C\CC[C@@]1(C)O[C@@H]21`: the GI50 in the experiment on A498 renal was 7.8 µM; with HS 578T breast, 9.78 µM; in the experiment on K-562 leukemia, 1.76 µM; with LOX IMVI melanoma it was 0.808 µM; with MDA-MB-231 breast, 2 µM; with MOLT-4 leukemia, 1.29 µM. Also, the GI50 in the experiment on NCI-H23 lung is 5.38 µM; in the experiment with SN12C renal it was 4.5 µM; in the experiment with U251 CNS it was 7.96 µM; with UACC-257 melanoma it was 3.78 µM. Also, the TGI in the experiment on A498 renal amounted to 15 µM; with HS 578T breast, 29.6 µM; in the experiment with K-562 leukemia, 8.49 µM; with LOX IMVI melanoma, 1.69 µM; in the experiment on MDA-MB-231 breast, 7.89 µM; in the experiment on MOLT-4 leukemia, 3.53 µM. The TGI came out at 12.4 µM in the experiment with NCI-H23 lung, 11.5 µM in the experiment on SN12C renal, 15.4 µM with U251 CNS and 10.5 µM in the experiment on UACC-257 melanoma.

Turning to `COc1ccc(-c2nc(-c3cn(C)c4ncccc34)cs2)cc1`, the GI50 is 0.776 µM in the experiment on A498 renal; above 100 µM in the experiment with HS 578T breast; 5.05 µM in the experiment on K-562 leukemia; 54.1 µM with LOX IMVI melanoma; 75.3 µM in the experiment on MDA-MB-231 breast; 18.9 µM in the experiment with MOLT-4 leukemia. Also, the GI50 is above 100 µM in the experiment on NCI-H23 lung, above 100 µM in the experiment with SN12C renal, 78.5 µM with U251 CNS and above 100 µM in the experiment on UACC-257 melanoma. Moreover, the TGI is 93.9 µM in the experiment with A498 renal; above 100 µM in the experiment on HS 578T breast; above 100 µM in the experiment with K-562 leukemia; above 100 µM in the experiment with LOX IMVI melanoma; above 100 µM in the experiment on MDA-MB-231 breast; above 100 µM with MOLT-4 leukemia. In addition, the TGI in the experiment with NCI-H23 lung, in the experiment with SN12C renal, in the experiment on U251 CNS and with UACC-257 melanoma was above 100 µM in each case.

Take `O=C(NOCC1CC1)c1ccc(F)c(F)c1Nc1ccc(I)cc1Cl`: the GI50 is 0.0639 µM in the experiment with A498 renal; 4.85 µM with HS 578T breast; 2.55 µM with K-562 leukemia; 0.727 µM in the experiment with LOX IMVI melanoma; 0.672 µM in the experiment with MDA-MB-231 breast; 3.35 µM with MOLT-4 leukemia. For the same compound, the GI50 in the experiment with NCI-H23 lung is 0.782 µM; with SN12C renal, 1.63 µM; in the experiment on U251 CNS it was 1.55 µM; in the experiment on UACC-257 melanoma, 0.0549 µM. Also, the TGI in the experiment with A498 renal is 0.492 µM; in the experiment with HS 578T breast, above 92 µM; with K-562 leukemia, above 35.3 µM; in the experiment on LOX IMVI melanoma it was 13.2 µM; with MDA-MB-231 breast, 14.7 µM; with MOLT-4 leukemia, 25.6 µM. For the same compound, the TGI is 23 µM in the experiment with NCI-H23 lung, above 100 µM with SN12C renal, 12.2 µM in the experiment with U251 CNS and 0.517 µM in the experiment on UACC-257 melanoma.

With `C=C(CN1CCc2ccccc2C1)c1ccc(C(=O)Nc2ccc(N)cc2)cc1`, the GI50 was 21.4 µM in the experiment on A498 renal; 29.8 µM with HS 578T breast; 1.94 µM in the experiment with K-562 leukemia; 17.7 µM with LOX IMVI melanoma; 20.5 µM in the experiment with MDA-MB-231 breast; 1.93 µM in the experiment on MOLT-4 leukemia. The GI50 with NCI-H23 lung was 17.4 µM; with SN12C renal, 30.1 µM; in the experiment on U251 CNS, 28.2 µM; with UACC-257 melanoma, 20.2 µM. The TGI in the experiment on A498 renal was above 100 µM; with HS 578T breast it was above 100 µM; with K-562 leukemia it was above 100 µM; with LOX IMVI melanoma, 55.7 µM; with MDA-MB-231 breast, above 100 µM; with MOLT-4 leukemia it was 53 µM. The TGI with NCI-H23 lung is above 100 µM; in the experiment on SN12C renal, above 100 µM; with U251 CNS, above 100 µM; with UACC-257 melanoma, 59.7 µM.

On to `Nc1ccccc1C#C/C=C\C#Cc1ccc(Cl)cc1Cl`, for which the GI50 was 12.6 µM in the experiment with A498 renal; 3.61 µM with HS 578T breast; 4.84 µM in the experiment with K-562 leukemia; 11 µM in the experiment on LOX IMVI melanoma; 15.8 µM in the experiment on MDA-MB-231 breast; 1.62 µM in the experiment with MOLT-4 leukemia. The GI50 in the experiment with NCI-H23 lung is 14.2 µM; with SN12C renal, 14.4 µM; in the experiment on U251 CNS it was 15.3 µM; with UACC-257 melanoma it was 18.3 µM. Moreover, the TGI in the experiment on A498 renal was 27 µM; in the experiment on HS 578T breast, 8.49 µM; in the experiment on K-562 leukemia it was above 100 µM; in the experiment with LOX IMVI melanoma, 26.5 µM; in the experiment on MDA-MB-231 breast it was 35.6 µM; in the experiment with MOLT-4 leukemia, above 100 µM. Further, the TGI in the experiment with NCI-H23 lung was 31.5 µM; with SN12C renal, 30.5 µM; in the experiment with U251 CNS, 34 µM; with UACC-257 melanoma, 40.9 µM.
